From patent publication US6489313B1, “Memory by the administration of Δ5-androstene-3β-ol-7,17-dione and 3β esters” (Humanetics Corporation, priority 1998, dated 2002)

What was measured:
Aged, two year old mice = assay: Morris water maze procedure, aged mice; format: in vivo; settings: two weeks after treatment, DHEA 20 mg/kg or equimolar amount, control 36 seconds
Protocol: Aged, two year old mice were tested in the Morris water maze procedure by training the mice to locate the pedestal in less than 15 seconds in three consecutive trials. Immediately upon completion of training one group of mice was treated with DHEA (20 mg/kg) and a second group treated with an eqimolar amount of Δ5-Androstene-3β-acetyl-7,17-dione. Two weeks after treatment the time to rescue was timed in the Morris water maze procedure at: Control 36 seconds, DHEA 27 seconds, and Δ5-Androstene-3β-acetyl-7,17-dione 13 seconds.

C57BL76 mice = assay: Morris water maze procedure, scopolamine-induced amnesia; format: in vivo
Protocol: Groups of 13 to 16 C57BL76 mice (35 gm) were tested in the Morris. water maze procedure by training the mice to locate the pedestal in less than 15 seconds in three consecutive trials. Immediately upon completion of training the mice in each of three groups were treated with scopolamine (1 mg/kg), scopolamine+DHEA, or scopolamine+Δ5-Androstene-3β-acetyl-7,17-dione.

[1] = C57BL76 mice (35 gm), scopolamine 1 mg/kg alone or with the steroid, six days after treatment, control 12.2±1.8

SMILES | time to rescue in the Morris water maze procedure (Aged, two year old mice) [s] | average time to rescue in the Morris water maze procedure (C57BL76 mice; mouse, in vivo) [s] | average time to rescue in the Morris water maze procedure (C57BL76 mice; [1]) [s]
C[C@]12CC[C@H](O)CC1=CC[C@@H]1[C@@H]2CC[C@]2(C)C(=O)CC[C@@H]12 [DHEA, dehydroepiandrosterone] | 27 | 9.7 ± 1.6 | –
CC(=O)O[C@H]1CC[C@@]2(C)C(=CC(=O)[C@@H]3[C@@H]2CC[C@]2(C)C(=O)CC[C@@H]32)C1 [Δ5-Androstene-3β-acetyl-7,17-dione] | 13 | – | 8.3 ± 1.8
CN1[C@@H]2C[C@@H](OC(=O)[C@H](CO)c3ccccc3)C[C@H]1[C@@H]1O[C@@H]12 [scopolamine] | – | – | 20.0 ± 3.6
